Legend:
Assay type in all cases: in vivo
[1] = tested on: barnyardgrass (Echinochloa crus-galli); assay: Test G Pre-Emergence Protocol; conditions: Echinochloa crus-galli, pre-emergence, 312 h, evaluated after 13 days; for pest or weed control at 15.625 g/ha: 15.625 g ai/ha; for pest or weed control at 15.625 g/ha / pest or weed control at 250 g/ha: read-out: Barnyardgrass damage rating (100=total damage to plant; 0=no damage to plant); for pest or weed control at 62.5 g/ha: 62.5 g ai/ha, 100=total damage to plant, 0=no damage to plant, read-out: Barnyardgrass damage rating; for pest or weed control at 250 g/ha: 250 g ai/ha
In short: (§1)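 Spraying took place one day after sowing, at 15.625, 62.5 or 250 g/ha, using an acetone/water (50:50) spray solution containing 0.5% Tween 20. Plants were kept under glasshouse conditions (24/16 °C, 14 h light, 65% humidity, watered twice daily), and injury was rated 0–100 at day 13.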

corn (Zea mays) [2] = assay: Test G Pre-Emergence Protocol; conditions: Zea mays, pre-emergence, 312 h, evaluated after 13 days; for plant injury at 15.625 g/ha: 15.625 g ai/ha; for plant injury at 15.625 g/ha / plant injury at 250 g/ha: read-out: Corn damage rating (100=total damage to plant; 0=no damage to plant); for plant injury at 62.5 g/ha: 62.5 g ai/ha, 100=total damage to plant, 0=no damage to plant, read-out: Corn damage rating; for plant injury at 250 g/ha: 250 g ai/ha
In short: as §1

[3] = tested on: giant foxtail (Setaria faberi); assay: Test G Pre-Emergence Protocol; conditions: Setaria faberi, pre-emergence, 312 h, evaluated after 13 days; for pest or weed control at 15.625 g/ha: 15.625 g ai/ha; for pest or weed control at 15.625 g/ha / pest or weed control at 250 g/ha: read-out: Foxtail, Giant damage rating (100=total damage to plant; 0=no damage to plant); for pest or weed control at 62.5 g/ha: 62.5 g ai/ha, 100=total damage to plant, 0=no damage to plant, read-out: Foxtail, Giant damage rating; for pest or weed control at 250 g/ha: 250 g ai/ha
In short: as §1

[4] = tested on: ivy-leaved morning glory (Ipomoea hederacea); assay: Test G Pre-Emergence Protocol; conditions: Ipomoea, pre-emergence, 312 h, evaluated after 13 days; for pest or weed control at 15.625 g/ha: 15.625 g ai/ha; for pest or weed control at 15.625 g/ha / pest or weed control at 250 g/ha: read-out: Morningglory, Ivy-leaved damage rating (100=total damage to plant; 0=no damage to plant); for pest or weed control at 62.5 g/ha: 62.5 g ai/ha, 100=total damage to plant, 0=no damage to plant, read-out: Morningglory, Ivy-leaved damage rating; for pest or weed control at 250 g/ha: 250 g ai/ha
In short: as §1

[5] = tested on: redroot pigweed (Amaranthus retroflexus); assay: Test G Pre-Emergence Protocol; conditions: Amaranthus retroflexus, pre-emergence, 312 h, evaluated after 13 days; for pest or weed control at 15.625 g/ha: 15.625 g ai/ha; for pest or weed control at 15.625 g/ha / pest or weed control at 250 g/ha: read-out: Pigweed, Redroot damage rating (100=total damage to plant; 0=no damage to plant); for pest or weed control at 62.5 g/ha: 62.5 g ai/ha, 100=total damage to plant, 0=no damage to plant, read-out: Pigweed, Redroot damage rating; for pest or weed control at 250 g/ha: 250 g ai/ha
In short: as §1

[6] = tested on: velvetleaf (Abutilon theophrasti); assay: Test G Pre-Emergence Protocol; conditions: Abutilon theophrasti, pre-emergence, 312 h, evaluated after 13 days; for pest or weed control at 15.625 g/ha: 15.625 g ai/ha; for pest or weed control at 15.625 g/ha / pest or weed control at 250 g/ha: read-out: Velvetleaf damage rating (100=total damage to plant; 0=no damage to plant); for pest or weed control at 62.5 g/ha: 62.5 g ai/ha, 100=total damage to plant, 0=no damage to plant, read-out: Velvetleaf damage rating; for pest or weed control at 250 g/ha: 250 g ai/ha
In short: as §1

[7] = tested on: barnyardgrass (Echinochloa crus-galli); assay: Test G Post-Emergence Protocol; conditions: Echinochloa crus-galli, post-emergence, 312 h, read-out: Barnyardgrass damage rating; for pest or weed control at 15.625 g/ha: 15.625 g ai/ha, evaluated after 13 days (100=total damage to plant; 0=no damage to plant); for pest or weed control at 62.5 g/ha: 62.5 g ai/ha; for pest or weed control at 62.5 g/ha / pest or weed control at 250 g/ha: evaluated after 13 days, 100=total damage to plant, 0=no damage to plant; for pest or weed control at 250 g/ha: 250 g ai/ha
In short: (§2)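 Post-emergence herbicidal damage, scored visually 0–100 at 13 days. Application at 15.625, 62.5 or 250 g/ha onto 8-day-old plants grown under glasshouse control.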

corn (Zea mays) [8] = assay: Test G Post-Emergence Protocol; conditions: Zea mays, post-emergence, 312 h, read-out: Corn damage rating; for plant injury at 15.625 g/ha: 15.625 g ai/ha, evaluated after 13 days (100=total damage to plant; 0=no damage to plant); for plant injury at 62.5 g/ha: 62.5 g ai/ha; for plant injury at 62.5 g/ha / plant injury at 250 g/ha: evaluated after 13 days, 100=total damage to plant, 0=no damage to plant; for plant injury at 250 g/ha: 250 g ai/ha
In short: as §2

[9] = tested on: giant foxtail (Setaria faberi); assay: Test G Post-Emergence Protocol; conditions: Setaria faberi, post-emergence, 312 h, read-out: Foxtail, Giant damage rating; for pest or weed control at 15.625 g/ha: 15.625 g ai/ha, evaluated after 13 days (100=total damage to plant; 0=no damage to plant); for pest or weed control at 62.5 g/ha: 62.5 g ai/ha; for pest or weed control at 62.5 g/ha / pest or weed control at 250 g/ha: evaluated after 13 days, 100=total damage to plant, 0=no damage to plant; for pest or weed control at 250 g/ha: 250 g ai/ha
In short: as §2

[10] = tested on: ivy-leaved morning glory (Ipomoea hederacea); assay: Test G Post-Emergence Protocol; conditions: Ipomoea, post-emergence, 312 h, read-out: Morningglory, Ivy-leaved damage rating; for pest or weed control at 15.625 g/ha: 15.625 g ai/ha, evaluated after 13 days (100=total damage to plant; 0=no damage to plant); for pest or weed control at 62.5 g/ha: 62.5 g ai/ha; for pest or weed control at 62.5 g/ha / pest or weed control at 250 g/ha: evaluated after 13 days, 100=total damage to plant, 0=no damage to plant; for pest or weed control at 250 g/ha: 250 g ai/ha
In short: as §2

[11] = tested on: redroot pigweed (Amaranthus retroflexus); assay: Test G Post-Emergence Protocol; conditions: Amaranthus retroflexus, post-emergence, 312 h, read-out: Pigweed, Redroot damage rating; for pest or weed control at 15.625 g/ha: 15.625 g ai/ha, evaluated after 13 days (100=total damage to plant; 0=no damage to plant); for pest or weed control at 62.5 g/ha: 62.5 g ai/ha; for pest or weed control at 62.5 g/ha / pest or weed control at 250 g/ha: evaluated after 13 days, 100=total damage to plant, 0=no damage to plant; for pest or weed control at 250 g/ha: 250 g ai/ha
In short: as §2

[12] = tested on: velvetleaf (Abutilon theophrasti); assay: Test G Post-Emergence Protocol; conditions: Abutilon theophrasti, post-emergence, 312 h, read-out: Velvetleaf damage rating; for pest or weed control at 15.625 g/ha: 15.625 g ai/ha, evaluated after 13 days (100=total damage to plant; 0=no damage to plant); for pest or weed control at 62.5 g/ha: 62.5 g ai/ha; for pest or weed control at 62.5 g/ha / pest or weed control at 250 g/ha: evaluated after 13 days, 100=total damage to plant, 0=no damage to plant; for pest or weed control at 250 g/ha: 250 g ai/ha
In short: as §2

Compound	pest or weed control at 15.625 g/ha [1]	pest or weed control at 62.5 g/ha [1]	pest or weed control at 250 g/ha [1]	plant injury at 15.625 g/ha (corn (Zea mays) [2])	plant injury at 62.5 g/ha (corn (Zea mays) [2])	plant injury at 250 g/ha (corn (Zea mays) [2])	pest or weed control at 15.625 g/ha [3]	pest or weed control at 62.5 g/ha [3]	pest or weed control at 250 g/ha [3]	pest or weed control at 15.625 g/ha [4]	pest or weed control at 62.5 g/ha [4]	pest or weed control at 250 g/ha [4]	pest or weed control at 15.625 g/ha [5]	pest or weed control at 62.5 g/ha [5]	pest or weed control at 250 g/ha [5]	pest or weed control at 15.625 g/ha [6]	pest or weed control at 62.5 g/ha [6]	pest or weed control at 250 g/ha [6]	pest or weed control at 15.625 g/ha [7]	pest or weed control at 62.5 g/ha [7]	further results
CN1C[C@H](c2ccc(F)c(C#N)c2)[C@@H](C(=O)Nc2ccccc2S(C)(=O)=O)C1=O (racemic) [Compound 1798]	0%	0%	10%	0%	0%	0%	0%	10%	30%	0%	0%	0%	0%	0%	20%	0%	0%	10%	0%	0%	pest or weed control at 250 g/ha [7]: 0%; plant injury at 15.625 g/ha (corn (Zea mays) [8]): 0%; plant injury at 62.5 g/ha (corn (Zea mays) [8]): 0%; plant injury at 250 g/ha (corn (Zea mays) [8]): 0%; pest or weed control at 15.625 g/ha [9]: 0%; pest or weed control at 62.5 g/ha [9]: 20%; pest or weed control at 250 g/ha [9]: 10%; pest or weed control at 15.625 g/ha [10]: 0%; pest or weed control at 62.5 g/ha [10]: 0%; pest or weed control at 250 g/ha [10]: 0%; pest or weed control at 15.625 g/ha [11]: 0%; pest or weed control at 62.5 g/ha [11]: 0%; pest or weed control at 250 g/ha [11]: 20%; pest or weed control at 15.625 g/ha [12]: 0%; pest or weed control at 62.5 g/ha [12]: 0%; pest or weed control at 250 g/ha [12]: 0%
Cc1cccc(NC(=O)[C@H]2C(=O)N(C)C[C@@H]2c2ccc(C(F)(F)F)cc2)[n+]1[O-] (racemic) [Compound 1805]	0%	0%	0%	0%	0%	0%	0%	0%	10%	0%	0%	0%	20%	10%	30%	0%	20%	20%	0%	0%	pest or weed control at 250 g/ha [7]: 0%; plant injury at 15.625 g/ha (corn (Zea mays) [8]): 0%; plant injury at 62.5 g/ha (corn (Zea mays) [8]): 0%; plant injury at 250 g/ha (corn (Zea mays) [8]): 0%; pest or weed control at 15.625 g/ha [9]: 0%; pest or weed control at 62.5 g/ha [9]: 30%; pest or weed control at 250 g/ha [9]: 40%; pest or weed control at 15.625 g/ha [10]: 0%; pest or weed control at 62.5 g/ha [10]: 30%; pest or weed control at 250 g/ha [10]: 30%; pest or weed control at 15.625 g/ha [11]: 10%; pest or weed control at 62.5 g/ha [11]: 60%; pest or weed control at 250 g/ha [11]: 40%; pest or weed control at 15.625 g/ha [12]: 0%; pest or weed control at 62.5 g/ha [12]: 20%; pest or weed control at 250 g/ha [12]: 30%
CN1C[C@H](c2cccc(C(F)(F)F)c2)[C@@H](C(=O)Nc2cc(O)ccc2F)C1=O (racemic) [Compound 1807]	0%	0%	0%	0%	0%	0%	0%	0%	0%	0%	0%	0%	0%	0%	0%	0%	0%	0%	0%	0%	pest or weed control at 250 g/ha [7]: 0%; plant injury at 15.625 g/ha (corn (Zea mays) [8]): 0%; plant injury at 62.5 g/ha (corn (Zea mays) [8]): 0%; plant injury at 250 g/ha (corn (Zea mays) [8]): 0%; pest or weed control at 15.625 g/ha [9]: 0%; pest or weed control at 62.5 g/ha [9]: 0%; pest or weed control at 250 g/ha [9]: 0%; pest or weed control at 15.625 g/ha [10]: 0%; pest or weed control at 62.5 g/ha [10]: 0%; pest or weed control at 250 g/ha [10]: 0%; pest or weed control at 15.625 g/ha [11]: 0%; pest or weed control at 62.5 g/ha [11]: 0%; pest or weed control at 250 g/ha [11]: 0%; pest or weed control at 15.625 g/ha [12]: 0%; pest or weed control at 62.5 g/ha [12]: 0%; pest or weed control at 250 g/ha [12]: 0%

Source: US12077503B2, “Substituted cyclic amides and their use as herbicides” (FMC CORPORATION, priority 2015, dated 2024)
